For the test, the target named is T1, IN-GCN2 interaction (UniProt P04585+Q9P2K8).
T1 construct: active truncated version of the human protein (192-1024); Recombinant full-length HIV-1 IN was produced in-house; purchased SignalChem (GCN2); IN made in-house in E. coli BL21(DE3)pLysS E12-11G; host or cells: BL21(DE3)pLysS for IN
Description: biochemical. Conditions: read-out: inhibition of the IN-GCN2 interaction at 100 µM. Format: binding, HIV-1 IN; human GCN2. As for the experimental part: The interaction between IN and GCN2 was monitored using the AlphaLISA technology (Revvity). The reaction was performed in a shallow-well 384-well microplate (Revvity, AlphaPlate-384SW, ProxiPlate) with 24 nM GST-GCN2, 700 nM 6xHis-IN, 10 µg/mL of nickel chelate acceptor beads and glutathione donor beads, the test compound or an equivalent amount of DMSO (solvent at 10 % final concentration) in a buffer composed of 50 mM Tris-HCl pH 7.5, 1 mM DTT, 0.05% Tween 20, 0.1% bovine serum albumin (BSA) and 40 mM NaCl (final volume 15µl). First, the reaction was initiated by adding the various components except the donor beads. After 20 minutes at room temperature, the donor beads were added and the plate sealed. Data acquisition was performed 120 minutes later using a Victor Nivo Multimode Plate Reader (Revvity). Means, standard deviations and graphical representation were generated using Prism 8.4.3 software (GraphPad).
420 molecules from the National Cancer Institute Developmental Therapeutics Program (NCI DTP) were screened as modulators of the IN-GCN2 interaction in vitro. […] Experiments were conducted onto two separate AlphaPlates 384-shallow well, with 180 and 240 molecules respectively and 12 DMSO control each.

T1 sequence (Q9P2K8 192-1024, other chains not shown): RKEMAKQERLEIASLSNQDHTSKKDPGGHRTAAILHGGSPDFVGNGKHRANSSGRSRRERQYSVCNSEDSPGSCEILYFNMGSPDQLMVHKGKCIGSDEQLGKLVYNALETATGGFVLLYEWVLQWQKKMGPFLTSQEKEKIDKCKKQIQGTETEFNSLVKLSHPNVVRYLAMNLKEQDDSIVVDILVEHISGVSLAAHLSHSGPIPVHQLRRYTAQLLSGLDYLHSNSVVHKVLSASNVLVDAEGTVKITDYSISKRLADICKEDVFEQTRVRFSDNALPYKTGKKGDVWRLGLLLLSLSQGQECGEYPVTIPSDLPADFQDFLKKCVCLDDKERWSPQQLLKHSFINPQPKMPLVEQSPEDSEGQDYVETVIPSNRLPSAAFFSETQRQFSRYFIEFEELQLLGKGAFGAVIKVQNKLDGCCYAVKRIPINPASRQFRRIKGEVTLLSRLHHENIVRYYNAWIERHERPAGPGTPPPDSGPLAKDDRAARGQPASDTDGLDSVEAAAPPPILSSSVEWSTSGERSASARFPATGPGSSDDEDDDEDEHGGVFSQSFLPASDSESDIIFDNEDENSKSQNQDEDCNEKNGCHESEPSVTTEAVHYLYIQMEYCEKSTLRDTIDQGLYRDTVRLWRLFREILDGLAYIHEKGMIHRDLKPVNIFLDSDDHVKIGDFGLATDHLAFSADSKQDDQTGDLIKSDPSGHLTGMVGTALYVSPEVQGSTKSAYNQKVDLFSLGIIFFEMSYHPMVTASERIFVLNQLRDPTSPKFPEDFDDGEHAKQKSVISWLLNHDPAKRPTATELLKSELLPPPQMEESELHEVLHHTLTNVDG

Usually inhibition stands for the change of the read-out against control, counted positive when it falls. Turning to `COc1cc2c(cc1OC)c1c(OC)c(OC)cc3c1c1c2sc(=S)n1CC3` [III-3a, 7,8,10,11-Tetramethoxy-4,5-dihydrodibenzo[de,g]-[1,3]thiazolo[5,4,3-ij]quinoline-2-thione], the inhibition at 100 µM was roughly 80%.

Regarding `CCOC(=O)N1CCc2cc(OC)c(OC)c3c2c1cc1cc(OC)c(OC)cc13` [III-3d, Dibenzo[de,g]quinoline-6-carboxylic acid, 4,5-dihydro-1,2,9,10-tetramethoxy-, ethyl ester], the inhibition at 100 µM was roughly 55%.

The record behind these values is patent EP4789664A1, “NOVEL ANTI[…] AND USES THEREOF” (priority 2025, dated 2026).
